Experimental findings from patent US20030114441A1, “Heterocyclic anti-epileptogenic agents and methods of use thereof” (Queen's University at Kingston, priority 2001, published 2003) are described below.

One assay deals with PTZ-induced seizure. Description: Subcutaneous pentylenetetrazole (PTZ)-induced seizure model. The settings on record: for PTZ 0.5 hr / PTZ 4 hr: i.p. at 300, 100 and 30 mg/kg; for PTZ 0.5 hr: PTZ 0.5 hr after administration; for PTZ 4 hr: PTZ 4 hr after administration. Type of assay: in vivo, male Carworth Farms #1 mice or male Sprague-Dawley rats. Also on record: key to PTZ 0.5 hr / PTZ 4 hr: — = no activity. The protocol: The MES and PTZ assays were performed by the Anticonvulsant Drug Development (ADD) Program in the Epilepsy Branch of the NIH (see, e.g., Stables and Kupferberg (1997) The NIH anticonvulsant Drug Development (ADD) Program: Preclinical Anticonvulsant Screening Project, Libby & Sons). All compounds were tested with either male Carworth Farms #1 mice or male Sprague-Dawley rats. Each test compound was administered via an i.p. injection at 300, 100, and 30 mg/kg. In the subcutaneous pentylenetetrazole (PTZ)-induced seizure model, seizures are induced 0.5 and 4 hrs after test compound administration by i.p. injection of PTZ (85 mg/kg in mice and 70 mg/kg in rats). Protection is defined as the inhibition of clonic spasms over a 30 min observation period.

A further assay has as its system MES-induced seizure. Nature of the assay: Maximal electroshock seizure test (MES). Also on record: key to MES 0.5 hr / MES 4 hr: — = no activity. The format is in vivo, male Carworth Farms #1 mice or male Sprague-Dawley rats. The settings on record: for MES 0.5 hr / MES 4 hr: i.p. at 300, 100 and 30 mg/kg; for MES 0.5 hr: stimulus 0.5 hr after administration; for MES 4 hr: stimulus 4 hr after administration. The method, then:
The MES and PTZ assays were performed by the Anticonvulsant Drug Development (ADD) Program in the Epilepsy Branch of the NIH (see, e.g., Stables and Kupferberg (1997) The NIH anticonvulsant Drug Development (ADD) Program: Preclinical Anticonvulsant Screening Project, Libby & Sons). All compounds were tested with either male Carworth Farms #1 mice or male Sprague-Dawley rats. Each test compound was administered via an i.p. injection at 300, 100, and 30 mg/kg. For the maximal electroshock seizure test (MES), corneal electrodes primed with a drop of electrolyte solution (0.9% NaCl) are applied to the eyes of the animal and an electrical stimulus (50 mA for mice, 150 mA for rats; 60 Hz) is delivered for 0.2 seconds at 0.5 and 4.0 hours after test compound administration. The animals are restrained by hand and are released at the moment of stimulation in order to permit observation of the seizure.
For orientation: Protection in the maximal electroshock model is a classic sign of anticonvulsant action.

Assay [1] concerns pilocarpine-induced seizures. Nature of the assay: Pilocarpine assay (seizure model). Type of assay: in vivo, adult male Sprague-Dawley rats. The following applies: 100 mg/kg i.p., 20 min before pilocarpine hydrochloride 350 mg/kg i.p.; 30 minute observation. The protocol:
A seizure model is performed using adult male Sprague-Dawley rats in accordance with the guidelines of the Canada Council on Animal Care and under the supervision of the Queen's University Animal Ethics Committee. This test procedure was adopted from previous work by Turski et al. (1984) Brain Res. 321:237. The test compounds are administered at 100 mg/kg by intraperitoneal (i.p.) injection. Seizures are induced 20 minutes afterwards by i.p. administration of pilocarpine hydrochloride (350 mg/kg). Protection is defined as the absence of clonic spasms over a 30 minute observation period after pilocarpine administration.

In assay [2] the test system is spontaneous recurrent seizures. Description: Spontaneous recurrent seizures (SRS) model of epilepsy. The format is in vivo, adult male Sprague-Dawley rat. The following applies: 20 mg/kg/day i.v. for 10 day. The protocol: The “spontaneous recurrent seizures” (SRS) model of epilepsy is used to evaluate candidate compounds in a model for Phase 1 epileptogenesis (see, e.g., Mello, E. et al., Epilepsia (1993) 34:985; Cavalheiro, J. et al., Epilepsia (1991) 32:778). In the SRS model, an adult male Sprague-Dawley rat (c. 260 g) is given pilocarpine by injection (380 mg/kg i.p.). Within 25 minutes, the animal enters status epilepticus, which lasts for 3 hours, and then diazepam is administered to stop seizures. The rat is allowed to spontaneously recover and is given food and water ad lib. and maintained on a 12 hour/12 hour light/dusk cycle. Beginning on about day 13-15, the rats develop spontaneous recurrent seizures, which occur at the rate of about 4-5 per week. The rats are videotaped 8 hours per day 5 days per week, and the videotapes are reviewed for behavioral seizures (including head nodding, forelimb clonus, and rearing), which are counted. The animals are watched for two months, permitting evaluation of a sufficient number of seizures. An experimental compound for evaluation can be administered at either of two times: Time 1, on Day 1, after the cessation of status epilepticus but before the onset of SRS; or Time 2, on Day 30, when the rats have been experiencing SRS for about two weeks. […]

[3] abbreviates: @ 100 mg, i.p., 4 hr after administration.

With `COC(=O)CC(c1ccc2ccccc2n1)N(Cc1ccccc1)Cc1ccccc1` (stereo not shown), in the assay with PTZ-induced seizure, the “PTZ 0.5 hr” value is reported as “—” and the “PTZ 4 hr” value is “—”. Besides, in the assay with MES-induced seizure (setting [3]), the “MES 4 hr, fraction of animals” value was 1/3 @ 100 mg. For the same compound, in the assay with MES-induced seizure, the “MES 0.5 hr” value was “—”. Further, the “Pilocarpine, activity in words” value in assay [1] is reported as “Inactive”.

As to `O=C(CC(c1ccc2ccccc2n1)N(Cc1ccccc1)Cc1ccccc1)N(Cc1ccccc1)Cc1ccccc1` (stereo not shown), in the assay with PTZ-induced seizure, the “PTZ 0.5 hr” value is reported as “—” and the “PTZ 4 hr” value is on record as “—”. For the same compound, in the assay on MES-induced seizure, the “MES 0.5 hr” value is listed as “—” and the “MES 4 hr” value was “—”. For the same compound, in assay [1], the “Pilocarpine, activity in words” value is “Min. Active”.

Take `COC(=O)CC(NC(C)c1ccccc1)c1cc2ccccc2o1` (stereo not shown): the “PTZ 4 hr, fraction of animals” value in the assay on PTZ-induced seizure (setting [3]) is given as 1/5 @ 100 mg. The “PTZ 0.5 hr, fraction of animals” value with PTZ-induced seizure (@ 300 mg, i.p., 0.5 hr after administration) is given as 2/5 @ 300 mg. Also, in the assay with MES-induced seizure, the “MES 0.5 hr” value is recorded as “—” and the “MES 4 hr” value is “—”. The “Pilocarpine, activity in words” value in assay [1] is “Active”.

As for `COC(=O)CC(NC(C)c1ccccc1)c1cnc2ccccc2c1` (stereo not shown), in the assay on PTZ-induced seizure, the “PTZ 0.5 hr” value is on record as “—” and the “PTZ 4 hr” value is “—”. In the assay with MES-induced seizure, the “MES 0.5 hr” value is reported as “—” and the “MES 4 hr” value is “—”. In assay [1], the “Pilocarpine, activity in words” value is listed as “Min. Active”.

For the compound `COC(=O)CC(NC(C)c1ccccc1)c1ccc2ccccc2n1` (stereo not shown), in the assay with PTZ-induced seizure, the “PTZ 0.5 hr” value is “—” and the “PTZ 4 hr” value was “—”. Also, in the assay with MES-induced seizure, the “MES 0.5 hr” value was “—” and the “MES 4 hr” value is given as “—”. The “Pilocarpine, activity in words” value in assay [1] is given as “Active”.

Take `COC(=O)CC(NC(C)c1ccccc1)c1ccc2c(c1)cc(C)n2S(=O)(=O)c1ccccc1` (stereo not shown): in assay [1], the “Pilocarpine, activity in words” value is “Active”.

Regarding `NC(CC(=O)O)c1ccc2c(c1)OCCO2` (stereo not shown), the “Pilocarpine, activity in words” value in assay [1] was “Min. Active”.

For `CC(NC(CC(=O)O)c1ccc2ccccc2n1)c1ccccc1` (stereo not shown), the “Pilocarpine, activity in words” value in assay [1] is given as “Active”.

Regarding `COC(=O)CC(Nc1ccccc1OC)c1ccc2ccccc2n1` (stereo not shown), in assay [1], the “Pilocarpine, activity in words” value is on record as “Active”.

In the case of `COC(=O)CC(Nc1ccccc1OC)c1cc2ccccc2nc1Cl` (stereo not shown), the “Pilocarpine, activity in words” value in assay [1] is “Min. Active”.

As to `NC(CC(=O)O)c1cccs1` (stereo not shown), in the assay on PTZ-induced seizure, the “PTZ 0.5 hr” value is listed as “—” and the “PTZ 4 hr” value is “—”. In the assay with MES-induced seizure, the “MES 0.5 hr” value is “—” and the “MES 4 hr” value was “—”. In assay [1], the “Pilocarpine, activity in words” value is on record as “Active”.

For the compound `O=C1NC(=O)C(c2ccccc2)(c2ccccc2)N1` [phenytoin], the “Preventing the onset of seizures (Time 1)” value in assay [2] (Time 1 (Day 1, after status epilepticus, before onset of SRS)) is given as “ineffective”. The “Effective at decreasing seizure frequency by 50% or more (Time 2)” value in assay [2] (Time 2 (Day 30, established SRS)) came out at 75%.
